In ChEMBL document CHEMBL3758081, “Synthesis and biological evaluation of new naphthalene substituted thiosemicarbazone derivatives as potent antifungal and anticancer agents” (Eur J Med Chem, 2016):
≈ marks a conversion by molar mass, not a printed value.

Legend:
[1] = system: Salmonella typhimurium; assay: Mutagenicity in Salmonella typhimurium TA98 at 1.25 mg/ml after 48 hrs by Ames MPF assay in absence of Sprague-Dawley rat liver S9 fraction; format: toxicity, organism-based; details: salmonella enterica subsp. enterica serovar typhimurium
[2] = Genotoxicity in Salmonella typhimurium TA1535/pSK1002 assessed as induction ratio at 2.5 mg/ml after 2 hrs by umuC assay in absence of Sprague-Dawley rat liver S9 fraction; format: toxicity, organism-based; details: salmonella enterica subsp. enterica serovar typhimurium
[3] = system: Salmonella typhimurium; assay: Genotoxicity in Salmonella typhimurium TA1535/pSK1002 assessed as growth factor at 2.5 mg/ml after 2 hrs by umuC assay in presence of Sprague-Dawley rat liver S9 fraction; format: toxicity, organism-based; details: salmonella enterica subsp. enterica serovar typhimurium, s9, 2 h
[4] = system: Salmonella typhimurium; assay: Mutagenicity in Salmonella typhimurium TA98 at 2.5 mg/ml after 48 hrs by Ames MPF assay in presence of Sprague-Dawley rat liver S9 fraction; format: toxicity, organism-based; details: salmonella enterica subsp. enterica serovar typhimurium, s9, 48 h
[5] = system: Salmonella typhimurium; assay: Mutagenicity in Salmonella typhimurium TA98 at 0.3125 mg/ml after 48 hrs by Ames MPF assay in presence of Sprague-Dawley rat liver S9 fraction; format: toxicity, organism-based; details: salmonella enterica subsp. enterica serovar typhimurium, s9, 48 h
[6] = system: Salmonella typhimurium; assay: Mutagenicity in Salmonella typhimurium TA100 at 5 mg/ml after 48 hrs by Ames MPF assay in presence of Sprague-Dawley rat liver S9 fraction; format: toxicity, organism-based; details: salmonella enterica subsp. enterica serovar typhimurium, s9, 48 h
[7] = system: Salmonella typhimurium; assay: Mutagenicity in Salmonella typhimurium TA98 at 0.625 mg/ml after 48 hrs by Ames MPF assay in presence of Sprague-Dawley rat liver S9 fraction; format: toxicity, organism-based; details: salmonella enterica subsp. enterica serovar typhimurium, s9, 48 h
[8] = system: Candida parapsilosis; assay: Antifungal activity against Candida parapsilosis NRLL Y-12696 after 48 hrs by broth microdilution method; format: functional; details: Lodderomyces parapsilosis, NRLL Y-12696, 48 h
[9] = system: Candida tropicalis; assay: Antifungal activity against Candida tropicalis NRLL Y-12968 after 48 hrs by broth microdilution method; format: functional; details: NRLL Y-12968, 48 h
[10] = system: Salmonella typhimurium; assay: Genotoxicity in Salmonella typhimurium TA1535/pSK1002 assessed as growth factor at 5 mg/ml after 2 hrs by umuC assay in presence of Sprague-Dawley rat liver S9 fraction; format: toxicity, organism-based; details: salmonella enterica subsp. enterica serovar typhimurium, s9, 2 h
[11] = system: Salmonella typhimurium; assay: Mutagenicity in Salmonella typhimurium TA100 at 1.25 mg/ml after 48 hrs by Ames MPF assay in presence of Sprague-Dawley rat liver S9 fraction; format: toxicity, organism-based; details: salmonella enterica subsp. enterica serovar typhimurium, s9, 48 h
[12] = system: Aspergillus flavus; assay: Antifungal activity against Aspergillus flavus NRRL-980 after 72 hrs by broth microdilution method; format: functional; details: NRRL-980, 72 h
[13] = system: Salmonella typhimurium; assay: Mutagenicity in Salmonella typhimurium TA100 at 2.5 mg/ml after 48 hrs by Ames MPF assay in presence of Sprague-Dawley rat liver S9 fraction; format: toxicity, organism-based; details: salmonella enterica subsp. enterica serovar typhimurium, s9, 48 h
[14] = system: Salmonella typhimurium; assay: Genotoxicity in Salmonella typhimurium TA1535/pSK1002 assessed as growth factor at 0.3125 mg/ml after 2 hrs by umuC assay in presence of Sprague-Dawley rat liver S9 fraction; format: toxicity, organism-based; details: salmonella enterica subsp. enterica serovar typhimurium, s9, 2 h
[15] = system: Salmonella typhimurium; assay: Genotoxicity in Salmonella typhimurium TA1535/pSK1002 assessed as growth factor at 0.3125 mg/ml after 2 hrs by umuC assay in absence of Sprague-Dawley rat liver S9 fraction; format: toxicity, organism-based; details: salmonella enterica subsp. enterica serovar typhimurium
[16] = system: Salmonella typhimurium; assay: Mutagenicity in Salmonella typhimurium TA100 at 0.3125 mg/ml after 48 hrs by Ames MPF assay in presence of Sprague-Dawley rat liver S9 fraction; format: toxicity, organism-based; details: salmonella enterica subsp. enterica serovar typhimurium, s9, 48 h
[17] = Genotoxicity in Salmonella typhimurium TA1535/pSK1002 assessed as induction ratio at 1.25 mg/ml after 2 hrs by umuC assay in absence of Sprague-Dawley rat liver S9 fraction; format: toxicity, organism-based; details: salmonella enterica subsp. enterica serovar typhimurium
[18] = system: Aspergillus parasiticus; assay: Antifungal activity against Aspergillus parasiticus NRRL 465 after 72 hrs by broth microdilution method; format: functional; details: NRRL 465, 72 h
[19] = system: A549; assay: Cytotoxicity against human A549 cells after 24 hrs by XTT assay; format: functional, cell-based; details: A549, 24 h
[20] = system: Salmonella typhimurium; assay: Genotoxicity in Salmonella typhimurium TA1535/pSK1002 assessed as growth factor at 5 mg/ml after 2 hrs by umuC assay in absence of Sprague-Dawley rat liver S9 fraction; format: toxicity, organism-based; details: salmonella enterica subsp. enterica serovar typhimurium
[21] = system: Salmonella typhimurium; assay: Mutagenicity in Salmonella typhimurium TA100 at 5 mg/ml after 48 hrs by Ames MPF assay in absence of Sprague-Dawley rat liver S9 fraction; format: toxicity, organism-based; details: salmonella enterica subsp. enterica serovar typhimurium
[22] = Genotoxicity in Salmonella typhimurium TA1535/pSK1002 assessed as induction ratio at 2.5 mg/ml after 2 hrs by umuC assay in presence of Sprague-Dawley rat liver S9 fraction; format: toxicity, organism-based; details: salmonella enterica subsp. enterica serovar typhimurium
[23] = system: Salmonella typhimurium; assay: Mutagenicity in Salmonella typhimurium TA98 at 0.3125 mg/ml after 48 hrs by Ames MPF assay in absence of Sprague-Dawley rat liver S9 fraction; format: toxicity, organism-based; details: salmonella enterica subsp. enterica serovar typhimurium
[24] = system: Salmonella typhimurium; assay: Mutagenicity in Salmonella typhimurium TA100 at 0.156 mg/ml after 48 hrs by Ames MPF assay in absence of Sprague-Dawley rat liver S9 fraction; format: toxicity, organism-based; details: salmonella enterica subsp. enterica serovar typhimurium
[25] = system: Salmonella typhimurium; assay: Mutagenicity in Salmonella typhimurium TA100 at 0.3125 mg/ml after 48 hrs by Ames MPF assay in absence of Sprague-Dawley rat liver S9 fraction; format: toxicity, organism-based; details: salmonella enterica subsp. enterica serovar typhimurium
[26] = Genotoxicity in Salmonella typhimurium TA1535/pSK1002 assessed as induction ratio at 0.625 mg/ml after 2 hrs by umuC assay in absence of Sprague-Dawley rat liver S9 fraction; format: toxicity, organism-based; details: salmonella enterica subsp. enterica serovar typhimurium
[27] = system: Salmonella typhimurium; assay: Genotoxicity in Salmonella typhimurium TA1535/pSK1002 assessed as growth factor at 0.625 mg/ml after 2 hrs by umuC assay in presence of Sprague-Dawley rat liver S9 fraction; format: toxicity, organism-based; details: salmonella enterica subsp. enterica serovar typhimurium, s9, 2 h
[28] = system: Fusarium solani; assay: Antifungal activity against Fusarium solani NRRL-13414 after 72 hrs by broth microdilution method; format: functional; details: NRRL-13414, 72 h
[29] = system: Salmonella typhimurium; assay: Mutagenicity in Salmonella typhimurium TA98 at 5 mg/ml after 48 hrs by Ames MPF assay in presence of Sprague-Dawley rat liver S9 fraction; format: toxicity, organism-based; details: salmonella enterica subsp. enterica serovar typhimurium, s9, 48 h
[30] = Genotoxicity in Salmonella typhimurium TA1535/pSK1002 assessed as induction ratio at 1.25 mg/ml after 2 hrs by umuC assay in presence of Sprague-Dawley rat liver S9 fraction; format: toxicity, organism-based; details: salmonella enterica subsp. enterica serovar typhimurium
[31] = system: Salmonella typhimurium; assay: Mutagenicity in Salmonella typhimurium TA100 at 1.25 mg/ml after 48 hrs by Ames MPF assay in absence of Sprague-Dawley rat liver S9 fraction; format: toxicity, organism-based; details: salmonella enterica subsp. enterica serovar typhimurium
[32] = system: Salmonella typhimurium; assay: Mutagenicity in Salmonella typhimurium TA100 at 0.625 mg/ml after 48 hrs by Ames MPF assay in presence of Sprague-Dawley rat liver S9 fraction; format: toxicity, organism-based; details: salmonella enterica subsp. enterica serovar typhimurium, s9, 48 h
[33] = system: Salmonella typhimurium; assay: Mutagenicity in Salmonella typhimurium TA98 at 0.156 mg/ml after 48 hrs by Ames MPF assay in absence of Sprague-Dawley rat liver S9 fraction; format: toxicity, organism-based; details: salmonella enterica subsp. enterica serovar typhimurium
[34] = system: Salmonella typhimurium; assay: Mutagenicity in Salmonella typhimurium TA98 at 5 mg/ml after 48 hrs by Ames MPF assay in absence of Sprague-Dawley rat liver S9 fraction; format: toxicity, organism-based; details: salmonella enterica subsp. enterica serovar typhimurium
[35] = system: Salmonella typhimurium; assay: Mutagenicity in Salmonella typhimurium TA100 at 0.625 mg/ml after 48 hrs by Ames MPF assay in absence of Sprague-Dawley rat liver S9 fraction; format: toxicity, organism-based; details: salmonella enterica subsp. enterica serovar typhimurium
[36] = system: Salmonella typhimurium; assay: Genotoxicity in Salmonella typhimurium TA1535/pSK1002 assessed as growth factor at 1.25 mg/ml after 2 hrs by umuC assay in presence of Sprague-Dawley rat liver S9 fraction; format: toxicity, organism-based; details: salmonella enterica subsp. enterica serovar typhimurium, s9, 2 h

Structure (SMILES) | fold change (FC) [1] | fold induction at 2 h, 2.5 mg/ml [2] | Activity [3] | fold change (FC) [4] | fold change (FC) [5] | fold change (FC) [6] | fold change (FC) [7] | MIC [8] | MIC [9] | Activity [10] | fold change (FC) [11] | MIC [12] | fold change (FC) [13] | Activity [14] | Activity [15] | fold change (FC) [16] | fold induction at 2 h, 1.25 mg/ml [17] | MIC [18] | IC50 [19] | Activity [20] | further results
Fc1ccc(F)c(/C=N/NC(=S)Nc2cccc3ccccc23)c1 | 0.34 | 1.75 | 0.236 | 0.56 | 1.12 | 0.78 | 0.28 | 250 µg/mL (≈ 732 µM) | 250 µg/mL (≈ 732 µM) | 0.228 | 0.44 | 250 µg/mL (≈ 732 µM) | 0.48 | 0.23 | 0.168 | 0.34 | 1.79 | 250 µg/mL (≈ 732 µM) | 500 µg/mL (≈ 1460 µM) | 0.131 | fold change (FC) [21]: 0.36; fold induction at 2 h, 2.5 mg/ml [22]: 1.39; fold change (FC) [23]: 0; fold change (FC) [24]: 0.6; fold change (FC) [25]: 0; fold induction at 2 h, 0.625 mg/ml [26]: 6; Activity [27]: 0.274; MIC [28]: 250 µg/mL (≈ 732 µM); fold change (FC) [29]: 0.65; fold induction at 2 h, 1.25 mg/ml [30]: 2.81; fold change (FC) [31]: 0.36; fold change (FC) [32]: 0.44; fold change (FC) [33]: 0.51; fold change (FC) [34]: 0.17; fold change (FC) [35]: 0.18; Activity [36]: 0.121
Fc1cccc(/C=N/NC(=S)Nc2cccc3ccccc23)c1F | 0.34 | 5.25 | 0.231 | 0.47 | 0.84 | 1.02 | 0.84 | 250 µg/mL (≈ 732 µM) | 250 µg/mL (≈ 732 µM) | 0.24 | 0.68 | 250 µg/mL (≈ 732 µM) | 0.58 | 0.121 | 0.115 | 1.07 | 1.63 | 250 µg/mL (≈ 732 µM) | 500 µg/mL (≈ 1460 µM) | 0.146 | fold change (FC) [21]: 0.42; fold induction at 2 h, 2.5 mg/ml [22]: 3.99; fold change (FC) [23]: 0; fold change (FC) [24]: 0.48; fold change (FC) [25]: 0.36; fold induction at 2 h, 0.625 mg/ml [26]: 1.75; Activity [27]: 0.236; MIC [28]: 250 µg/mL (≈ 732 µM); fold change (FC) [29]: 0.56; fold induction at 2 h, 1.25 mg/ml [30]: 1.42; fold change (FC) [31]: 0.42; fold change (FC) [32]: 0.92; fold change (FC) [33]: 0.17; fold change (FC) [34]: 0.34; fold change (FC) [35]: 0.42; Activity [36]: 0.228
